In article PMC8148468, “Shikimic acid protects skin cells from UV-induced senescence through activation of the NAD+-dependent deacetylase SIRT1” (Aging (Albany NY), 2021):

Target: T1, FLAG-SIRT1 purified from HEK293 cells (Homo sapiens, UniProt Q96EB6)
T1 construct: FLAG; made in house; host or cells: HEK293 (HEK293F)
T1 sequence (Q96EB6 1-747): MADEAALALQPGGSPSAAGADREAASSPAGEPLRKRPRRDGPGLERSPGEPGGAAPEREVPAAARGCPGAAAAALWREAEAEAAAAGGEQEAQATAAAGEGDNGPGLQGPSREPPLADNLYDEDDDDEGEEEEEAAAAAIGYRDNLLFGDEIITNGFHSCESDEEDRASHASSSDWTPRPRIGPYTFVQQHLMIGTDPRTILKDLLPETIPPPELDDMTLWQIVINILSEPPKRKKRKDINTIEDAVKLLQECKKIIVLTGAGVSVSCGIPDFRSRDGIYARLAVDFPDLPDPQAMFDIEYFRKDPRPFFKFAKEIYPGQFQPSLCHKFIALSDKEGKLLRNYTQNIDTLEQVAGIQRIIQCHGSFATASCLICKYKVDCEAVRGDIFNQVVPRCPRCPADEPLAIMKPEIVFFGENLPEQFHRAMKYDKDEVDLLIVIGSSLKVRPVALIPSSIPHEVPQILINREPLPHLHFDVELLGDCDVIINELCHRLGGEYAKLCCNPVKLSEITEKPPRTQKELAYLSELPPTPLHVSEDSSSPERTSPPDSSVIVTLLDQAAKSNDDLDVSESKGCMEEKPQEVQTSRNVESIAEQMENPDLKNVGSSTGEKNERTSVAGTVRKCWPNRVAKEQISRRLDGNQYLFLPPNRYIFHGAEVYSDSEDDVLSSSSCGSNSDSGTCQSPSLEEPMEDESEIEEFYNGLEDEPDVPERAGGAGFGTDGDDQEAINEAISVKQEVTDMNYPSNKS
Experiment: In vitro SIRT1 deacetylation assay
Assay type: biochemical
Conditions: -/+ NAD+, Shikimic acid 1 μM-10mM
Description: Figure 3 (A) Schematic representation of the protocol for senescence induction using UVB irradiation and study of EX527 involvement in the effect of Shikimic acid. Cells were treated with or without shikimic acid -/+ EX-527 from day 1 until day 7 after seeding, irradiated with UVB on days 2 and 5 and harvested for analysis on day 7. (B) Phase-contrast (left column) and bright field (right column) microscope images of β-Gal staining showing non-irradiated cells non-treated and treated with shikimic acid (10, 25 and 50 mM), UVB-irradiated cells non-treated and treated with shikimic acid (10, 25 and 50 mM), shikimic acid (10, 25 and 50 mM) + EX-527 1 μM and EX-527 1 μM. (C) Percentage of SA-β-Gal positive cells and (D) relative HAS2 mRNA levels in non-irradiated cells non-treated and treated with Shikimic acid (10, 25 and 50 mM), UVB-irradiated cells non-treated and treated with Shikimic acid (10, 25 and 50 mM), Shikimic acid (10, 25 and 50 mM) + EX-527 1 μM and EX-527 1 μM. (E) Percentage of SA-β-Gal as in (C) of SA 25 or 50mM upon siRNA mediated downregulation of SIRT1, SIRT2 or SIRT6. siScr: scramble siRNA. […] SIRT1 activity was then evaluated by analyzing acetylation of H3K9, H4K16 and p53K382 by Western blot. […]
The in vitro SIRT1 deacetylation assay was performed as previously described. […] Deacetylation was monitored by quantification of H3K9ac/H3, H4K16ac/H4 and p53K382ac/p53 levels.

O=C(O)C1=C[C@@H](O)[C@@H](O)[C@H](O)C1 [Shikimic acid]
SIRT1 deacetylation activity in vitro (H3K9ac, H4K16ac, p53K382ac): did not alter SIRT1 deacetylation activity in vitro
